In article doi:10.1101/2021.11.05.467508v1, “Biochemical analysis of deacetylase activity of rice sirtuin OsSRT1, a class IV member in plants” (biorxiv, 2021):
Read-outs that look alike come from different tables or passages of the source.

Assays:
OsSRT1 (FL) [1] = target: T1, OsSRT1 (FL) (Oryza sativa, UniProt B8ARK7); assay: dot blot deacetylation assay, H3K9Ac; type: biochemical
T1 construct: gene SRT1; full length 1-483, cloned from rice leaf cDNA into pET30a, His-tagged, monomer by SEC
T1 sequence (B8ARK7 1-483): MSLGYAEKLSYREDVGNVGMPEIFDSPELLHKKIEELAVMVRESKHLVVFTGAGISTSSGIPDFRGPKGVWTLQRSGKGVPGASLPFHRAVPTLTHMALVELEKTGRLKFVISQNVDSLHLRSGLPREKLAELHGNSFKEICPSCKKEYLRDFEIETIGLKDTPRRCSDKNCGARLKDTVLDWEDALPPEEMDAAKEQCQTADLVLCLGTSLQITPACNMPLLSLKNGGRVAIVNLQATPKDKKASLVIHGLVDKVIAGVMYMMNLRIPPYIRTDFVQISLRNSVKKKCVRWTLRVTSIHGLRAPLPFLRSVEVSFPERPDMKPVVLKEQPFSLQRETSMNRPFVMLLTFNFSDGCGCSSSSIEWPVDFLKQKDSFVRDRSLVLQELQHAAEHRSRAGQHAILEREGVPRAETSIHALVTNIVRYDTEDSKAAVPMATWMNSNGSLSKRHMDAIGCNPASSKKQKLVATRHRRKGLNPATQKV

OsSRT1 (FL) [2] = target: T1, OsSRT1 (FL); assay: dot blot deacetylation assay, H3K9Ac; type: biochemical; remark: listed apart in the source

Question: For `Nc1ncnc2c1ncn2[C@@H]1O[C@H](COP(=O)(O)OP(=O)(O)OC[C@H]2OC(O)[C@H](O)[C@@H]2O)[C@@H](O)[C@H]1O` (stereo partly shown) [ADP-ribose], which IC50 (OsSRT1 (FL) [1]; H3K9Ac deacetylation, product inhibition) is on record?
Answer: 25 ± 2 µM

Question: With `NC(=O)c1cccnc1` [NAM] as the compound, how does the IC50 (OsSRT1 (FL) [1]) read?
Answer: 147 ± 21 µM

Question: Which EC50 (OsSRT1 (FL) [2]) does the source give for `Oc1ccc(/C=C/c2cc(O)cc(O)c2)cc1` [resveratrol] here?
Answer: 236 ± 12 µM

Question: `CCCC(=O)O` [sodium butyrate] was tested. Which IC50 (OsSRT1 (FL) [1]) did it give?
Answer: 98 ± 15 µM
